By pIC50 is commonly meant the IC50 on a negative log10 scale, so that one unit is a factor of ten. Low readings indicate a high IC50, high ones a low IC50.

pIC50: −log10 of the molar value. Where a name gives a salt, the structure may show the parent alone.

T1 sequence (P25103 whole entry): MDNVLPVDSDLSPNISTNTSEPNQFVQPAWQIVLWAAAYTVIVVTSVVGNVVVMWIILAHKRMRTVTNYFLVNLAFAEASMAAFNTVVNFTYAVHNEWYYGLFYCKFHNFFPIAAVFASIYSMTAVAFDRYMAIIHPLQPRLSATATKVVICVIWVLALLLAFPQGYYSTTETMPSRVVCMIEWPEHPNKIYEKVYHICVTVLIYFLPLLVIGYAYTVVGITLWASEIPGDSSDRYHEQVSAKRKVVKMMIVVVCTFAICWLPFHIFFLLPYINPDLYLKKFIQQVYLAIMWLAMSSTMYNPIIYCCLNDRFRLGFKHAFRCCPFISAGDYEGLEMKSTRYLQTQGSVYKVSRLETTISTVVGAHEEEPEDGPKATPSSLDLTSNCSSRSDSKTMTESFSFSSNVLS

The assay has as its target T1, substance P receptor (Homo sapiens, UniProt P25103).
T1 construct: endogenous in cells; host or cells: IM-9 human lymphoblast cells (membrane preparation)
Kind of assay: Radioligand receptor binding inhibitory activity using receptor from human lymphoblast cells (IM-9). Conditions: [125I]-BHSP binding, receptor from IM-9 cells, 25 C, 30 min. The method, then:
Radioligand receptor binding inhibitory activity (Binding inhibitory activity using receptor from human lymphoblast cells (IM-9))
The method of M. A. Cascieri et al., “Molecular Pharmacology 42, p. 458 (1992)” was modified and used. The receptor was. prepared from human lymphoblast cells (IM-9). IM-9 cells (2×10^5 cells/mL) were incubated for 3 days (one liter), which was then subjected to centrifuge for 5 min. at 500×G to obtain cell pellets. The obtained pellets were washed once with phosphate buffer (Flow Laboratories, CAT. No. 28-103-05), which were then homogenized using Polytron homogenizer (“Kinematika”, Germany) in 30 mL of 50 mM Tris-HCl buffer (pH 7.4) containing 120 mM sodium chloride, 5 mM potassium chloride, 2 μg/mL chymostatin, 40 μg/mL bacitracin, 5 μg/mL phosphoramidon, 0.5 mM phenylmethylsulfonyl fluoride, 1 mM ethylenediamine tetra-acetate, which was subjected to centrifuge at 40,000×G for 20 min. The residue was washed twice with 30 mL of the buffer, which was then preserved frozen (−80° C.) as a specimen of the receptor.
The specimen was suspended in a reaction buffer (50 mM Tris-HCl buffer (pH 7.4), 0.02% bovine serum albumin, 1 mM phenylmethylsulfonyl fluoride, 2 μg/mL chymostatin, 40 μg/mL bacitracin and 3 mM manganese chloride) to have protein in the concentration of 0.5 mg/mL of protein and 100 μL portion of the suspension was used in the reaction. After addition of the sample and ^125]-BHSP (0.46 KBq), the reaction was allowed to proceed in 0.2 mL of reaction buffer at […] for 30 min. The amount of nonspecific binding was determined by adding substance P at a final concentration of 2×10^−6 M.
After the reaction, using a cell harvester (290 PHD, Cambridge Technology, Inc, U.S.A.), filtration was carried out through a glass filter (GF/B, Whatman, U.S.A.), which was immersed in 0.1% polyethyleneimine for 24 hrs. and dried. After washing three times with 250 μL of 50 mM Tris-HCl buffer (pH 7.4) containing 0.02% bovine serum albumin, the radioactivity remaining on the filter was. determined with a gamma counter.
The antagonistic activity of each compound obtained in Examples was determined in terms of the concentration necessary to cause 50% inhibition (IC50 value) under the above-described conditions, and the results were shown in Table 14.
The radio ligand means substance P labeled with [^125I].
`C[C@@H](O[C@H]1CCN(C(=O)C2CCN(C3CCOC3=O)CC2)C[C@H]1c1ccccc1)c1cc(C(F)(F)F)cc(C(F)(F)F)c1` (single isomer, unassigned) [Example 34, hydrochloride] showed a pIC50 of 10.46. As for `C[C@@H](O[C@H]1CCN(C(=O)C2CCN(C3CCOC3=O)CC2)C[C@H]1c1ccccc1)c1cc(C(F)(F)F)cc(C(F)(F)F)c1` (single isomer, unassigned) [Example 35, hydrochloride], the figure is 10.37; as for `COc1ccc(-n2nnnc2C(F)(F)F)cc1C(C)N[C@H]1CCN(C(=O)C2CCN(C(C)=O)CC2)C[C@H]1c1ccccc1` (single isomer, unassigned) [Example 83], 10.24.

The compound `COc1ccc(-n2nnnc2C(F)(F)F)cc1C(C)N[C@H]1CCN(C(=O)CNC(C)=O)C[C@H]1c1ccccc1` (single isomer, unassigned) [Example 85] showed a pIC50 of 10.05.

In turn, `CC(=O)N1CCC(C(=O)N2CC[C@H](O[C@H](C)c3cc(C(F)(F)F)cc(C(F)(F)F)c3)[C@H](c3ccccc3)C2)CC1` [Example 36, (3R,4S)-1-[(1-Acetylpiperidin-4-yl)carbonyl]-4-[(1R)-1-[3,5-bis(trifluoromethyl)phenyl]ethoxy]-3-phenylpiperidine] had a pIC50 of 10.59. For `CC(=O)NCC(=O)N1CCC(C(=O)N2CC[C@H](O[C@H](C)c3cc(C(F)(F)F)cc(C(F)(F)F)c3)[C@H](c3ccccc3)C2)CC1` [Example 38, N-[2-[4-[[(3R,4S)-4-[(1R)-1-[3,5-Bis(trifluoromethyl)phenyl]ethoxy]-3-phenylpiperidin-1-yl]carbonyl]piperidin-1-yl]-2-oxoethyl]acetamide] the value was 10.60. Turning to `C[C@@H](O[C@H]1CCN(C(=O)C2CCN(C(=O)Cn3cnnn3)CC2)C[C@H]1c1ccccc1)c1cc(C(F)(F)F)cc(C(F)(F)F)c1` [Example 39, (3R,4S)-4-[(1R)-1-[3,5-Bis(trifluoromethyl)phenyl]ethoxy]-3-phenyl-1-[[1-(1H-tetrazol-1-ylacetyl)piperidin-4-yl]carbonyl]piperidine], the pIC50 was 10.49. For `C[C@@H](O[C@H]1CCN(C(=O)C2CCN(C(=O)N3CCNC3=O)CC2)C[C@H]1c1ccccc1)c1cc(C(F)(F)F)cc(C(F)(F)F)c1` [Example 40, 1-[[4-[[(3R,4S)-4-[(1R)-1-[3,5-Bis(trifluoromethyl)phenyl]ethoxy]-3-phenylpiperidin-1-yl]carbonyl]piperidin-1-yl]carbonyl]imidazolidin-2-one] the value was 10.42; for `CC(=O)N[C@H]1CC[C@H](C(=O)N2CC[C@H](O[C@H](C)c3cc(C(F)(F)F)cc(C(F)(F)F)c3)[C@H](c3ccccc3)C2)CC1` [Example 42, N-[trans-4-[[(3R,4S)-4-[(1R)-1-[3,5-Bis(trifluoromethyl)phenyl]ethoxy]-3-phenylpiperidin-1-yl]carbonyl]cyclohexyl]acetamide], 10.64; for `CCCC(=O)N[C@H]1CC[C@H](C(=O)N2CC[C@H](O[C@H](C)c3cc(C(F)(F)F)cc(C(F)(F)F)c3)[C@H](c3ccccc3)C2)CC1` [Example 44, N-[trans-4-[[(3R,4S)-4-[(1R)-1-[3,5-Bis(trifluoromethyl)phenyl]ethoxy]-3-phenylpiperidin-1-yl]carbonyl]cyclohexyl]butanamide], 10.28. For `CC(C)C(=O)N[C@H]1CC[C@H](C(=O)N2CC[C@H](O[C@H](C)c3cc(C(F)(F)F)cc(C(F)(F)F)c3)[C@H](c3ccccc3)C2)CC1` [Example 45, N-[trans-4-[[(3R,4S)-4-[(1R)-1-[3,5-Bis(trifluoromethyl)phenyl]ethoxy]-3-phenylpiperidin-1-yl]carbonyl]cyclohexyl]-2-methylpropanamide] the value was 10.30. As for `C[C@@H](O[C@H]1CCN(C(=O)[C@H]2CC[C@H](NC(=O)C3CC3)CC2)C[C@H]1c1ccccc1)c1cc(C(F)(F)F)cc(C(F)(F)F)c1` [Example 46, N-[trans-4-[[(3R,4S)-4-[(1R)-1-[3,5-Bis(trifluoromethyl)phenyl]ethoxy]-3-phenylpiperidin-1-yl]carbonyl]cyclohexyl]cyclopropanecarboxamide], the figure is 10.21; as for `CNC(=O)N[C@H]1CC[C@H](C(=O)N2CC[C@H](O[C@H](C)c3cc(C(F)(F)F)cc(C(F)(F)F)c3)[C@H](c3ccccc3)C2)CC1` [Example 47, N-[trans-4-[[(3R,4S)-4-[(1R)-1-[3,5-Bis(trifluoromethyl)phenyl]ethoxy]-3-phenylpiperidin-1-yl]carbonyl]cyclohexyl]-N′-methylurea], 10.44; as for `C[C@@H](O[C@H]1CCN(C(=O)[C@H]2CC[C@H](NS(C)(=O)=O)CC2)C[C@H]1c1ccccc1)c1cc(C(F)(F)F)cc(C(F)(F)F)c1` [Example 49, N-[trans-4-[[(3R,4S)-4-[(1R)-1-[3,5-Bis(trifluoromethyl)phenyl]ethoxy]-3-phenylpiperidin-1-yl]carbonyl]cyclohexyl]methanesulfonamide], 10.26.

As for `C[C@@H](O[C@H]1CCN(C(=O)[C@H]2CC[C@H](NC(=O)c3cccs3)CC2)C[C@H]1c1ccccc1)c1cc(C(F)(F)F)cc(C(F)(F)F)c1` [Example 51, N-[trans-4-[[(3R,4S)-4-[(1R)-1-[3,5-Bis(trifluoromethyl)phenyl]ethoxy]-3-phenylpiperidin-1-yl]carbonyl]cyclohexyl]thiophene-2-carboxamide], the pIC50 is 10.11. For `CC(=O)N[C@H]1CC[C@@H](C(=O)N2CC[C@H](O[C@H](C)c3cc(C(F)(F)F)cc(C(F)(F)F)c3)[C@H](c3ccccc3)C2)CC1` [Example 54, N-[cis-4-[[(3R,4S)-4-[(1R)-1-[3,5-Bis(trifluoromethyl)phenyl]ethoxy]-3-phenylpiperidin-1-yl]carbonyl]cyclohexyl]acetamide] the value was 10.12; for `C[C@@H](O[C@H]1CCN(C(=O)[C@H]2CC[C@H](NC(=O)CN3CCCCC3=O)CC2)C[C@H]1c1ccccc1)c1cc(C(F)(F)F)cc(C(F)(F)F)c1` [Example 57, N-[trans-4-[[(3R,4S)-4-[(1R)-1-[3,5-Bis(trifluoromethyl)phenyl]ethoxy]-3-phenylpiperidin-1-yl]carbonyl]cyclohexyl]-2-(2-oxopiperidin-1-yl)acetamide], 10.24. For `C[C@@H](O[C@H]1CCN(C(=O)[C@H]2CC[C@H](NC(=O)CCCCCl)CC2)C[C@H]1c1ccccc1)c1cc(C(F)(F)F)cc(C(F)(F)F)c1` [Example 59, N-[trans-4-[[(3R,4S)-4-[(1R)-1-[3,5-Bis(trifluoromethyl)phenyl]ethoxy]-3-phenylpiperidin-1-yl]carbonyl]cyclohexyl]-5-chloropentanamide] the value was 10.06; for `COC(=O)N[C@H]1CC[C@H](C(=O)N2CC[C@H](O[C@H](C)c3cc(C(F)(F)F)cc(C(F)(F)F)c3)[C@H](c3ccccc3)C2)CC1` [Example 61, Methyl trans-4-[[(3R,4S)-4-[(1R)-1-[3,5-bis(trifluoromethyl)phenyl]ethoxy]-3-phenylpiperidin-1-yl]carbonyl]cyclohexylcarbamate], 10.01.

Take `CCNC(=O)N[C@H]1CC[C@H](C(=O)N2CC[C@H](O[C@H](C)c3cc(C(F)(F)F)cc(C(F)(F)F)c3)[C@H](c3ccccc3)C2)CC1` [Example 63, N-[trans-4-[[(3R,4S)-4-[(1R)-1-[3,5-Bis(trifluoromethyl)phenyl]ethoxy]-3-phenylpiperidin-1-yl]carbonyl]cyclohexyl]-N′-ethylurea]: the pIC50 was 10.12. `CC(C)NC(=O)N[C@H]1CC[C@H](C(=O)N2CC[C@H](O[C@H](C)c3cc(C(F)(F)F)cc(C(F)(F)F)c3)[C@H](c3ccccc3)C2)CC1` [Example 65, N-[trans-4-[[(3R,4S)-4-[(1R)-1-[3,5-Bis(trifluoromethyl)phenyl]ethoxy]-3-phenylpiperidin-1-yl]carbonyl]cyclohexyl]-N′-isopropylurea] gave a negative logarithm of the IC50 (pIC50) of 10.00. For `C[C@@H](O[C@H]1CCN(C(=O)[C@H]2CC[C@H](NC(=O)N(C)C)CC2)C[C@H]1c1ccccc1)c1cc(C(F)(F)F)cc(C(F)(F)F)c1` [Example 66, N′-[trans-4-[[(3R,4S)-4-[(1R)-1-[3,5-Bis(trifluoromethyl)phenyl]ethoxy]-3-phenylpiperidin-1-yl]carbonyl]cyclohexyl]-N,N-dimethylurea], the negative-log IC50 (pIC50) is 10.14. For `CNC(=O)[C@H]1CC[C@H](C(=O)N2CC[C@H](O[C@H](C)c3cc(C(F)(F)F)cc(C(F)(F)F)c3)[C@H](c3ccccc3)C2)CC1` [Example 68, trans-4-[[(3R,4S)-4-[(1R)-1-[3,5-Bis(trifluoromethyl)phenyl]ethoxy]-3-phenylpiperidin-1-yl]carbonyl]-N-methylcyclohexanecarboxamide] the value was 10.03.

The record behind these values is patent publication US20060142337A1, “Piperidine derivative and use thereof” (priority 2004, published 2006).
